Assay results as given in patent US12390441B2, “Immunomodulating o-het/aryl azalides” (Zoetis Services LLC, priority 2020, dated 2025).
Marks after values point to notes of the source that are not given here.

test system: BRD pathogens, M. haemolytica and P. multocida; experiment: In-vitro MIC model, BRD pathogen screening panel; type: cell-based, Mannheimia haemolytica; Pasteurella multocida; details: Table F, Formula (1-A1a) compounds

Row | Structure (SMILES) | MIC for at least one BRD strain (asterisk on Ex#)
1 | CCCNC[C@]1(O)[C@H](C)O[C@@H](O[C@H]2[C@H](C)[C@@H](O[C@@H]3O[C@H](C)C[C@H](N(C)C(=O)N(C)c4ccccc4)[C@H]3Oc3ccccc3Cl)[C@](C)(O)C[C@@H](C)CN[C@H](C)[C@@H](O)[C@](C)(O)[C@@H](CC)OC(=O)[C@@H]2C)C[C@@]1(C)OC [Example F-10] | F-10* (MIC ≤ 64 μg/mL for at least one BRD strain)
2 | CCCNC[C@]1(O)[C@H](C)O[C@@H](O[C@H]2[C@H](C)[C@@H](O[C@@H]3O[C@H](C)C[C@H](N(C)C(=O)N(C)c4ccccc4)[C@H]3Oc3cccc(OCC)c3)[C@](C)(O)C[C@@H](C)CN[C@H](C)[C@@H](O)[C@](C)(O)[C@@H](CC)OC(=O)[C@@H]2C)C[C@@]1(C)OC [Example F-20] | F-20* (MIC ≤ 64 μg/mL for at least one BRD strain)

same assay, conditions: at least one BRD strain

Row | Structure (SMILES) | MIC flag at the example number (Table A) | MIC flag at the example number (Table E)
3 | CC[C@H]1OC(=O)[C@H](C)[C@@H](O[C@H]2C[C@@](C)(OC)[C@@H](O)[C@H](C)O2)[C@H](C)[C@@H](O[C@@H]2O[C@H](C)C[C@H](N(C)C)[C@H]2Oc2ccccc2C#N)[C@](C)(O)C[C@@H](C)CN(C)[C@H](C)[C@@H](O)[C@]1(C)O [Example A-3] | A-3* (MIC ≤ 64 μg/mL for at least one BRD strain) | –
4 | CCCNC[C@]1(O)[C@H](C)O[C@@H](O[C@H]2[C@H](C)[C@@H](O[C@@H]3O[C@H](C)C[C@H](N(C)C)[C@H]3Oc3ccc(OC)nc3)[C@](C)(O)C[C@@H](C)CN[C@H](C)[C@@H](O)[C@](C)(O)[C@@H](CC)OC(=O)[C@@H]2C)C[C@@]1(C)OC [Example E-133] | – | E-133* (MIC ≤ 64 μg/mL for at least one BRD strain)
5 | CC[C@H]1OC(=O)[C@H](C)[C@@H](O[C@H]2C[C@@](C)(OC)[C@@H](O)[C@H](C)O2)[C@H](C)[C@@H](O[C@@H]2O[C@H](C)C[C@H](N(C)C)[C@H]2Oc2ccccc2Cl)[C@](C)(O)C[C@@H](C)CN(C)[C@H](C)[C@@H](O)[C@]1(C)O [Example A-10] | A-10* (MIC ≤ 64 μg/mL for at least one BRD strain) | –
6 | CC[C@H]1OC(=O)[C@H](C)[C@@H](O[C@H]2C[C@@](C)(OC)[C@@H](O)[C@H](C)O2)[C@H](C)[C@@H](O[C@@H]2O[C@H](C)C[C@H](NC)[C@H]2Oc2cnc(OC)nc2)[C@](C)(O)C[C@@H](C)CN(C)[C@H](C)[C@@H](O)[C@]1(C)O [Example A-15] | A-15* (MIC ≤ 64 μg/mL for at least one BRD strain) | –
7 | CCCNC[C@]1(O)[C@H](C)O[C@@H](O[C@H]2[C@H](C)[C@@H](O[C@@H]3O[C@H](C)C[C@H](N(C)C)[C@H]3Oc3ccccc3C#N)[C@](C)(O)C[C@@H](C)CN[C@H](C)[C@@H](O)[C@](C)(O)[C@@H](CC)OC(=O)[C@@H]2C)C[C@@]1(C)OC [Example E-105] | – | E-105* (MIC ≤ 64 μg/mL for at least one BRD strain)
8 | CCCNC[C@]1(O)[C@H](C)O[C@@H](O[C@H]2[C@H](C)[C@@H](O[C@@H]3O[C@H](C)C[C@H](NC)[C@H]3Oc3cc(C)ccc3F)[C@](C)(O)C[C@@H](C)CN[C@H](C)[C@@H](O)[C@](C)(O)[C@@H](CC)OC(=O)[C@@H]2C)C[C@@]1(C)OC [Example E-53] | – | E-53* (MIC ≤ 64 μg/mL for at least one BRD strain)
9 | CC[C@H]1OC(=O)[C@H](C)[C@@H](O[C@H]2C[C@@](C)(OC)[C@@H](O)[C@H](C)O2)[C@H](C)[C@@H](O[C@@H]2O[C@H](C)C[C@H](N(C)C)[C@H]2Oc2ccc(Cl)nc2)[C@](C)(O)C[C@@H](C)CN(C)[C@H](C)[C@@H](O)[C@]1(C)O [Example A-5] | A-5* (MIC ≤ 64 μg/mL for at least one BRD strain) | –
10 | CC[C@H]1OC(=O)[C@H](C)[C@@H](O[C@H]2C[C@@](C)(OC)[C@@H](O)[C@H](C)O2)[C@H](C)[C@@H](O[C@@H]2O[C@H](C)C[C@H](NC)[C@H]2Oc2ccc(F)c(S(C)(=O)=O)c2)[C@](C)(O)C[C@@H](C)CN(C)[C@H](C)[C@@H](O)[C@]1(C)O [Example A-22] | A-22* (MIC ≤ 64 μg/mL for at least one BRD strain) | –
11 | CCCN(C[C@]1(O)[C@H](C)O[C@@H](O[C@H]2[C@H](C)[C@@H](O[C@@H]3O[C@H](C)C[C@H](NC)[C@H]3Oc3ncccn3)[C@](C)(O)C[C@@H](C)CN[C@H](C)[C@@H](O)[C@](C)(O)[C@@H](CC)OC(=O)[C@@H]2C)C[C@@]1(C)OC)c1ncccn1 [Example E-118] | – | E-118* (MIC ≤ 64 μg/mL for at least one BRD strain)
12 | CC[C@H]1OC(=O)[C@H](C)[C@@H](O[C@H]2C[C@@](C)(OC)[C@@H](O)[C@H](C)O2)[C@H](C)[C@@H](O[C@@H]2O[C@H](C)C[C@H](NC)[C@H]2Oc2cc(F)ccc2OC)[C@](C)(O)C[C@@H](C)CN(C)[C@H](C)[C@@H](O)[C@]1(C)O [Example A-14] | A-14* (MIC ≤ 64 μg/mL for at least one BRD strain) | –
13 | CCOc1ccc(O[C@H]2[C@H](O[C@@H]3[C@@H](C)[C@H](O[C@H]4C[C@@](C)(OC)[C@@H](O)[C@H](C)O4)[C@@H](C)C(=O)O[C@H](CC)[C@@](C)(O)[C@H](O)[C@@H](C)N(C)C[C@H](C)C[C@@]3(C)O)O[C@H](C)C[C@@H]2NC)cc1 [Example A-17] | A-17* (MIC ≤ 64 μg/mL for at least one BRD strain) | –
14 | CCCNC[C@]1(O)[C@H](C)O[C@@H](O[C@H]2[C@H](C)[C@@H](O[C@@H]3O[C@H](C)C[C@H](NC)[C@H]3Oc3cc(OC)ccc3F)[C@](C)(O)C[C@@H](C)CN[C@H](C)[C@@H](O)[C@](C)(O)[C@@H](CC)OC(=O)[C@@H]2C)C[C@@]1(C)OC [Example E-18] | – | E-18* (MIC ≤ 64 μg/mL for at least one BRD strain)
15 | CC[C@H]1OC(=O)[C@H](C)[C@@H](O[C@H]2C[C@@](C)(OC)[C@](O)(CNC3CC3)[C@H](C)O2)[C@H](C)[C@@H](O[C@@H]2O[C@H](C)C[C@H](N(C)C)[C@H]2Oc2ccccc2)[C@](C)(O)C[C@@H](C)CN[C@H](C)[C@@H](O)[C@]1(C)O [Example E-140] | – | E-140* (MIC ≤ 64 μg/mL for at least one BRD strain)
16 | CCCNC[C@]1(O)[C@H](C)O[C@@H](O[C@H]2[C@H](C)[C@@H](O[C@@H]3O[C@H](C)C[C@H](N(C)C)[C@H]3Oc3cncc(C(F)(F)F)c3)[C@](C)(O)C[C@@H](C)CN[C@H](C)[C@@H](O)[C@](C)(O)[C@@H](CC)OC(=O)[C@@H]2C)C[C@@]1(C)OC [Example E-70] | – | E-70* (MIC ≤ 64 μg/mL for at least one BRD strain)
17 | CCCN(C[C@]1(O)[C@H](C)O[C@@H](O[C@H]2[C@H](C)[C@@H](O[C@@H]3O[C@H](C)C[C@H](NC)[C@H]3Oc3ncc(C#N)cn3)[C@](C)(O)C[C@@H](C)CN[C@H](C)[C@@H](O)[C@](C)(O)[C@@H](CC)OC(=O)[C@@H]2C)C[C@@]1(C)OC)c1ncc(C#N)cn1 [Example E-122] | – | E-122* (MIC ≤ 64 μg/mL for at least one BRD strain)
18 | CCCNC[C@]1(O)[C@H](C)O[C@@H](O[C@H]2[C@H](C)[C@@H](O[C@@H]3O[C@H](C)C[C@H](NC)[C@H]3Oc3ccc(F)c(C)c3)[C@](C)(O)C[C@@H](C)CN[C@H](C)[C@@H](O)[C@](C)(O)[C@@H](CC)OC(=O)[C@@H]2C)C[C@@]1(C)OC [Example E-22] | – | E-22* (MIC ≤ 64 μg/mL for at least one BRD strain)
19 | CCCNC[C@]1(O)[C@H](C)O[C@@H](O[C@H]2[C@H](C)[C@@H](O[C@@H]3O[C@H](C)C[C@H](NC)[C@H]3Oc3ccccc3S(C)(=O)=O)[C@](C)(O)C[C@@H](C)CN[C@H](C)[C@@H](O)[C@](C)(O)[C@@H](CC)OC(=O)[C@@H]2C)C[C@@]1(C)OC [Example E-66] | – | E-66* (MIC ≤ 64 μg/mL for at least one BRD strain)
20 | CC[C@H]1OC(=O)[C@H](C)[C@@H](O[C@H]2C[C@@](C)(OC)[C@@H](O)[C@H](C)O2)[C@H](C)[C@@H](O[C@@H]2O[C@H](C)C[C@H](N(C)C)[C@H]2Oc2cc(OC)cc(OC)c2)[C@](C)(O)C[C@@H](C)CN(C)[C@H](C)[C@@H](O)[C@]1(C)O [Example A-48] | A-48* (MIC ≤ 64 μg/mL for at least one BRD strain) | –
21 | CC[C@H]1OC(=O)[C@H](C)[C@@H](O[C@H]2C[C@@](C)(OC)[C@@H](O)[C@H](C)O2)[C@H](C)[C@@H](O[C@@H]2O[C@H](C)C[C@H](NC)[C@H]2Oc2ccc(OC)nc2OC)[C@](C)(O)C[C@@H](C)CN(C)[C@H](C)[C@@H](O)[C@]1(C)O [Example A-42] | A-42* (MIC ≤ 64 μg/mL for at least one BRD strain) | –
22 | CCCNC[C@]1(O)[C@H](C)O[C@@H](O[C@H]2[C@H](C)[C@@H](O[C@@H]3O[C@H](C)C[C@H](NC)[C@H]3Oc3cccc4cc[nH]c34)[C@](C)(O)C[C@@H](C)CN[C@H](C)[C@@H](O)[C@](C)(O)[C@@H](CC)OC(=O)[C@@H]2C)C[C@@]1(C)OC [Example E-65] | – | E-65* (MIC ≤ 64 μg/mL for at least one BRD strain)
23 | CC[C@H]1OC(=O)[C@H](C)[C@@H](O[C@H]2C[C@@](C)(OC)[C@@H](O)[C@H](C)O2)[C@H](C)[C@@H](O[C@@H]2O[C@H](C)C[C@H](N(C)C)[C@H]2Oc2ccc(OC)nc2C)[C@](C)(O)C[C@@H](C)CN(C)[C@H](C)[C@@H](O)[C@]1(C)O [Example A-38] | A-38* (MIC ≤ 64 μg/mL for at least one BRD strain) | –
24 | CCCNC[C@]1(O)[C@H](C)O[C@@H](O[C@H]2[C@H](C)[C@@H](O[C@@H]3O[C@H](C)C[C@H](N(C)C)[C@H]3Oc3ccccc3OCC)[C@](C)(O)C[C@@H](C)CN[C@H](C)[C@@H](O)[C@](C)(O)[C@@H](CC)OC(=O)[C@@H]2C)C[C@@]1(C)OC [Example E-96] | – | E-96* (MIC ≤ 64 μg/mL for at least one BRD strain)
25 | CCCNC[C@]1(O)[C@H](C)O[C@@H](O[C@H]2[C@H](C)[C@@H](O[C@@H]3O[C@H](C)C[C@H](NC)[C@H]3Oc3ccc([N+](=O)[O-])cc3)[C@](C)(O)C[C@@H](C)CN[C@H](C)[C@@H](O)[C@](C)(O)[C@@H](CC)OC(=O)[C@@H]2C)C[C@@]1(C)OC [Example E-35] | – | E-35* (MIC ≤ 64 μg/mL for at least one BRD strain)
26 | CC[C@H]1OC(=O)[C@H](C)[C@@H](O[C@H]2C[C@@](C)(OC)[C@@H](O)[C@H](C)O2)[C@H](C)[C@@H](O[C@@H]2O[C@H](C)C[C@H](N(C)C)[C@H]2Oc2ccc(OC)nc2OC)[C@](C)(O)C[C@@H](C)CN(C)[C@H](C)[C@@H](O)[C@]1(C)O [Example A-43] | A-43* (MIC ≤ 64 μg/mL for at least one BRD strain) | –
